The results in this text go back to patent US20220064127A1, “PLATELET AGGREGATION INHIBITOR, PREPARATION AND USES THEREOF” (SHENYANG HINEWY PHARMACEUTICAL TECHNOLOGY CO., LTD., priority 2020, published 2022).

The test system of assay [1] is ADP-Induced Platelet Aggregation. Briefly: Inhibition of ADP-induced platelet aggregation in rabbit platelet-rich plasma (microplate method). The note with it: Oryctolagus cuniculus, Platelet, rabbit PRP, inducer ADP; for IC50: absorbance 655 nm, read-out: IC50 (Mean ± SE), ADP-induced platelet aggregation; for inhibition at 30 µM: read-out: Inhibition rate of target compounds on platelet aggregation at 30 μM. It is filed as cell-based. On the procedure: Example 62 Investigation on Inhibition of ADP-Induced Platelet Aggregation in Rabbit
A blood sample was collected from ear vein of a healthy male rabbit, added with 3.8% sodium citrate for anticoagulation and then centrifuged at 800 r/min for 10 min to prepare platelet-rich plasma (PRP) and at 3,000 r/min for 10 min to prepare platelet-poor plasma (PPP). The investigation on the plasma should be performed within 0.5-3 h after the preparation.
2. Determination of Platelet Aggregation by Microplate Method
The drugs to be tested were weighed and added with an appropriate amount of DMSO to prepare a series of 10 mM stock solutions, which were respectively diluted to prepare 10× stock solutions with normal saline for further use.
Several wells of a microplate were selected as test wells, which were added with 135 μL of PRP and then respectively added with 15 μL of the 10× stock solutions. A well in which 135 μL of PRP and 15 μL of normal saline were added was used as the vehicle control, and a well in which 135 μL of PPP and 15 μL of normal saline were added was used as the blank control. Duplicate wells were set for each test well. The plate was shaken, incubated at 37° C. for 5 min, and then measured for A0 at 655 nm. Subsequently, the microplate was added with 15 μL of an inducer […] (ADP) working solution (25 μmol/L) in each well, incubated at 37° C. under shaking and measured at 655 nm for A1, where the incubation time was determined according to the time in the pre-experiment when the maximum aggregation appeared. The platelet aggregation rate (AR) and platelet aggregation inhibition rate (AIR) were calculated according to the following formulas:
AR=(1−ARtest sample/ARcontrol)

Assay [2] deals with carotid artery thrombus induced by ferric chloride. Briefly: Effect of intragastric administration on FeCl3-induced carotid arterial thrombosis in male SD rats. The note with it: for Wet weight of thrombus: daily for one week, male SD rats, 20% FeCl3. The assay is classed as in vivo, male Sprague Dawley (SD) rats. The procedure:
Example 63 Effect of Intragastric Administration of Compound LY-26y on Arterial Thrombosis in Male Sprague Dawley (SD) Rats
1. Experimental animals: 50 male SD rats, 260-320 g (n=10).
2. Main reagents: ferric chloride, urethane, 0.5% CMC-Na, 0.9% NaCl.
The 50 male SD rats were randomly and averagely divided into five groups, respectively model group, low-dose LY-26y group (5 mg/kg), medium-dose LY-26y group (10 mg/kg), high-dose LY-26y group (20 mg/kg) and positive control group (10 mg/kg ticagrelor). After experiencing one-week adaptation, the rats in the experimental groups were treated by intragastric administration of LY-26y by at 9 am every day, and the model group was treated with 0.5% CMC-Na solution. After continuously treated for one week, the rats were anesthetized by intraperitoneal injection of 20% urethane ([…]) 8 min after the last administration. Then the anesthetized rats were placed on an insulation plate (to maintain body temperature) in a supine position, and a straight incision was made on the midline of the neck to expose the right common carotid artery. A plastic film (1.5×1.0 cm^2) was placed under the artery to protect the surrounding tissues. The filter paper was cut into a size of 1.0×0.8 cm^2, soaked with a 20% FeCl3 solution and then used to coat the exposed artery for 30 min to induce […] thrombosis. After 2 h of the administration, a 1.5-cm […] carotid artery was collected and weighed, and then the blood vessel was cut to remove the thrombus therein to measure the weight of the blood vessel wall, where the weight difference was the weight of thrombus.

As to `CCOC(=O)c1c(C)nc(-c2cccc(C#N)c2)n1OCc1ccc(C#N)cc1` [LY-26y, ethyl 1-[(4-cyanobenzyl)oxy]-2-(3-cyanophenyl)-4-methyl-1H-imidazole-5-carboxylate], the IC50 in assay [1] worked out at 4.237 ± 0.0156 µM. Further, the “Wet weight of thrombus” value in assay [2] (5 mg/kg intragastric) is reported as 6.38 ± 0.18 mg; in assay [2] (10 mg/kg intragastric), 4.89 ± 0.33 mg; in assay [2] (20 mg/kg intragastric), 4.39 ± 0.26 mg. Moreover, the “Effect on weight of the FeCl3-induced arterial thrombus in rats” value in assay [2] (intragastric administration, in words) was “significantly reduced”.

With `CCCSc1nc(N[C@@H]2C[C@H]2c2ccc(F)c(F)c2)c2nnn([C@@H]3C[C@H](OCCO)[C@@H](O)[C@H]3O)c2n1` [Ticagrelor, reference compound], the IC50 in assay [1] was determined as 7.21 ± 0.251 µM. Also, the “Wet weight of thrombus” value in assay [2] (10 mg/kg intragastric) worked out at 5.01 ± 0.16 mg.

`Cc1nc(-c2cccc(C#N)c2)n(OCc2ccc(C#N)cc2)c1C(=O)O` [LY-27y, 4-methyl-2-(3-cyanophenyl)-1-(4-cyanobenzyl)oxy-1H-imidazole-5-carboxylic acid]: the half-inhibitory concentration (IC50) in assay [1] worked out at 3.88 ± 0.269 µM.

With `C=CCOn1c(-c2cccc(C#N)c2)nc(C)c1C(=O)O` [LY-27d, 4-methyl-2-(3-cyanophenyl)-1-allyloxy-1H-imidazole-5-carboxylic acid], the IC50 in assay [1] turned out to be 6.35 ± 0.469 µM.

For `CCOC(=O)c1c(C)nc(-c2cccc(C#N)c2)n1OCCCO` [LY-26f, ethyl 2-(3-cyanophenyl)-1-(3-hydroxypropoxy)-4-methyl-1H-imidazole-5-carboxylate], the IC50 in assay [1] was determined as 11.4 ± 0.213 µM.

For the compound `CCOC(=O)c1c(C)nc(-c2cccc(-c3nnn[nH]3)c2)n1O` [LY-13, ethyl 2-[3-(1H-tetrazol-5-yl)phenyl]-1-hydroxy-4-methyl-1H-imidazole-5-carboxylate], the IC50 in assay [1] is 21.9 ± 0.865 µM.

For the compound `COn1c(-c2cccc(C#N)c2)nc(C)c1C(=O)Nc1ccccc1` [LY-28c, 2-(3-cyanophenyl)-1-methoxy-4-methyl-N-phenyl-1H-imidazole-5-carboxamide], the half-maximal inhibitory concentration (IC50) in assay [1] worked out at 15.9 ± 1.2 µM.

For `CCOC(=O)c1[nH]c(-c2cccc(C#N)c2)nc1C` [LY-29, ethyl 2-(3-cyanophenyl)-4-methyl-1H-imidazole-5-carboxylate], in assay [1], the inhibition at 30 µM stood at 32.5%.

As to `CCOC(=O)c1c(C)nc(-c2ccccc2)n1OC` [LY-25, ethyl 4-methyl-2-phenyl-1-methoxy-1H-imidazole-5-carboxylate], the inhibition at 30 µM in assay [1] came out at 24.1%.

In the case of `CCOC(=O)c1c(C)nc(-c2cccc(C#N)c2)n1OCc1cccc(F)c1` [LY-26m, ethyl 2-(3-cyanophenyl)-1-[(3-fluorobenzyl)oxy]-4-methyl-1H-imidazole-5-carboxylate], in assay [1], the IC50 was found to be 22.4 ± 1.36 µM.

With `C=CCOn1c(-c2cccc(C#N)c2)nc(C)c1C(=O)OCC` [LY-26d, ethyl 1-(allyloxy)-2-(3-cyanophenyl)-4-methyl-1H-imidazole-5-carboxylate], in assay [1], the IC50 was found to be 5.856 ± 0.0165 µM.

As usually defined, the IC50 is the concentration needed to halve the response being measured. By inhibition is commonly meant the drop in the measured response relative to a control, in per cent.
